# Test results: paper PMC6149971, “In Vivo and In Vitro Activities and ADME-Tox Profile of a Quinolizidine-Modified 4-Aminoquinoline: A Potent Anti-P. falciparum and Anti-P. vivax Blood-Stage Antimalarial” (Molecules : A Journal of Synthetic Chemistry and Natural …, 2017)
# Columns and labels:
# CYP1A2 = target: T1, CYP1A2 (Homo sapiens, UniProt P05177); experiment: in vitro
# T1 sequence (P05177 1-516): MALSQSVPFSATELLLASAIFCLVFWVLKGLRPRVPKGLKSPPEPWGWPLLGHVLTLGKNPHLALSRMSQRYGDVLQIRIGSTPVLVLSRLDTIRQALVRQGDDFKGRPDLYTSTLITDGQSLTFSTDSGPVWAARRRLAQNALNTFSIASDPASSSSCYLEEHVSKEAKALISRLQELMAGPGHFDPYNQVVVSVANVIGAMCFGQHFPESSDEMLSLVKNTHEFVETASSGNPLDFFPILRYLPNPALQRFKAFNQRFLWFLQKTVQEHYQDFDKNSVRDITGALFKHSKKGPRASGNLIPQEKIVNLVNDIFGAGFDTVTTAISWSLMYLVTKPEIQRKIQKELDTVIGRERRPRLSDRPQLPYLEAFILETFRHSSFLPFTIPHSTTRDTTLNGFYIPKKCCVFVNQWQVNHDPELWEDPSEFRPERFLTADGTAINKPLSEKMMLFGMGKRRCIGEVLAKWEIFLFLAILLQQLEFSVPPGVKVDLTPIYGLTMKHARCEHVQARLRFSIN
# [1] = Microsome stability and metabolism studies, rat; assay type: in vitro ADME; set-up: key: +: Metabolic Products Detected In Vitro and In Vivo; ND: Not detectable; settings: (−)-AM1 1 μM, at 30 min
# Protocol: Samples from the metabolic stability and metabolism studies were analyzed under the following conditions: UPLC interfaced with a Premiere XE triple Quadrupole Waters for stability studies, and Bruker Daltonics Ion Trap HCT Ultra for metabolic studies. A gradient from 2% to 100% (Water, MeOH, 5 mM Ammonium Acetate) over 2 min (stability) or 12 min (metabolism) in a C18 BEH (dimensions 1 by 50 mm for stability and 2.1 by 100 mm for metabolism, 1.7 µm column, 45 °C temperature, flow rate 0.5 mL/min) was used. For stability studies, the detection was performed in MRM (ESI positive, Q1/Q3 330.16/152.00, Cone Voltage 45 V; Extractor 5 V; Capillary 3.4 kV), while for metabolism studies, analysis was performed in Auto MS/MS mode (ESI positive; Capillary 109 V; Dry Temp 350 °C; Nebulizer 30 psi; Dry gas 10 L/min; HV capillary 500 V; Mass Accu time 500 µs; Mass range MS scan 100–600 amu, MS/MS 50–450 amu).
# For stability and metabolism studies, test compounds were dissolved in DMSO, diluted at the final concentration of 1 µM, and pre-incubated in duplicate for 10 min at 37 °C in potassium phosphate buffer, pH 7.4, 3 mM MgCl2, with rat, mouse, and human hepatic microsomes (Xenotech Europe, Pfungstadt, Germany) at the final concentration of 0.5 mg/mL. The reaction was then started by adding the cofactor mixture of NADP, Glc6P, and G6P-DH, in the presence of UDPGA 1 mM in human microsomes to promote glucuronide formation. Acetonitrile (with verapamil as internal standard) was added to the samples at the times time 0 and 30 min to stop the reaction. Samples were then centrifuged and the supernatants analysed and quantified by LC-MS/MS. Reference compounds of known metabolic stability, 7-ethoxycoumarin (7-EC) and propranolol, were used as controls.
# The percentage of the area of test compounds remaining after 30 min incubation was calculated in respect to the area of compounds at time = 0 min. […] Samples were re-analyzed by acquiring the daughter scan of the potential metabolites found during the full scan acquisition.
# [2] = tested on: P. falciparum TM91C235 (multidrug-resistant); experiment: In vitro chemosensitivity assay (pLDH), TM91C235 strain; assay type: cell-based; settings: Plasmodium falciparum; 72 h incubation, pLDH method, mean of 3 experiments; read-out: P. falciparum IC50, TM91C235
# [3] = Pharmacokinetics in CD-1 mice after oral administration; settings: mouse, in vivo
# CYP2C9 = CYP2C9 (Homo sapiens, UniProt P11712); experiment: in vitro
# P. falciparum D10 (CQ-S) = tested on: P. falciparum D10 (CQ-S); set-up: method as in PMID 22901673; settings: 72 h incubation, pLDH method, mean of 3 experiments; data already published; cited from earlier work
# [4] = Metabolites in mouse plasma after oral treatment; assay type: in vivo; set-up: key: +: Metabolic Products Detected In Vitro and In Vivo; ND: Not detectable; settings: after 50 mg/kg (−)-AM1 oral gavage, at 120 min
# Protocol: A representative chromatogram in the mouse and the MS spectra are shown in Figure S1 (Supplementary Materials), while the proposed structures of metabolites in all the species, together with the retention times, are shown in Table 3. In the same table, the metabolites found in mouse plasma after 50 mg/kg oral treatment are included. The retention times and [M + H]^+ of the metabolites are the same for all three species.
# The parent [M + H]^+ = 330 and the metabolites [M + H]^+ = 346 and [M + H]^+ = 344 were also detected in the mouse plasma samples collected after oral treatment of CD1 mice with 50 mg/kg of (−)-AM1 (Figure S4).
# Samples from the metabolic stability and metabolism studies were analyzed under the following conditions: UPLC interfaced with a Premiere XE triple Quadrupole Waters for stability studies, and Bruker Daltonics Ion Trap HCT Ultra for metabolic studies. A gradient from 2% to 100% (Water, MeOH, 5 mM Ammonium Acetate) over 2 min (stability) or 12 min (metabolism) in a C18 BEH (dimensions 1 by 50 mm for stability and 2.1 by 100 mm for metabolism, 1.7 µm column, 45 °C temperature, flow rate 0.5 mL/min) was used. […]
# P. falciparum W-2 (CQ-R) = tested on: P. falciparum W-2 (CQ-R); set-up: method as in PMID 22901673; settings: 72 h incubation, pLDH method, mean of 3 experiments; data already published; cited from earlier work
# [5] = tested on: P. falciparum FCR3 (CQ-R); experiment: In vitro chemosensitivity assay (pLDH), FCR3 strain; assay type: cell-based; settings: Plasmodium falciparum, FCR3; 72 h incubation, pLDH method, mean of 3 experiments; read-out: P. falciparum IC50, FCR3
# [6] = tested on: P. berghei ANKA transmission stages in Anopheles stephensi; experiment: Transmission-blocking test, P. berghei/A. stephensi model; assay type: in vivo; settings: 50 mg/kg oral
# Protocol: (−)-AM1 was also tested in transmission-blocking and prophylactic studies using the P. berghei/A. stephensi model as described, with a few modifications.
# For the transmission-blocking test, four BALB/c female mice (18–20 g) were infected i.p. with 10^7 P. berghei-infected red blood cells. Four days later, once confirmed for gametocyte carriage, two mice were treated with 50 mg/kg (−)-AM1, through the oral administration of 500 µL of a methylcellulose suspension, obtained by dissolving a 20 mg/mL ethanol stock solution in 0.5% methylcellulose to a final 9% ethanol concentration. Two mice received the vehicle only as controls. One hour after the treatment, mice were anesthetized and exposed to the bites of 100 sugar-starved female mosquitoes, at 20 °C. Ten days after the blood meal, samples of mosquito midguts from each treatment (n = 40) were dissected and P. berghei oocysts were manually counted using light microscopy at 400× magnification. Oocyst numbers were log-transformed and the geometric means were compared using the Student’s t-test.
# Sequence of CYP2C9 (P11712 whole entry): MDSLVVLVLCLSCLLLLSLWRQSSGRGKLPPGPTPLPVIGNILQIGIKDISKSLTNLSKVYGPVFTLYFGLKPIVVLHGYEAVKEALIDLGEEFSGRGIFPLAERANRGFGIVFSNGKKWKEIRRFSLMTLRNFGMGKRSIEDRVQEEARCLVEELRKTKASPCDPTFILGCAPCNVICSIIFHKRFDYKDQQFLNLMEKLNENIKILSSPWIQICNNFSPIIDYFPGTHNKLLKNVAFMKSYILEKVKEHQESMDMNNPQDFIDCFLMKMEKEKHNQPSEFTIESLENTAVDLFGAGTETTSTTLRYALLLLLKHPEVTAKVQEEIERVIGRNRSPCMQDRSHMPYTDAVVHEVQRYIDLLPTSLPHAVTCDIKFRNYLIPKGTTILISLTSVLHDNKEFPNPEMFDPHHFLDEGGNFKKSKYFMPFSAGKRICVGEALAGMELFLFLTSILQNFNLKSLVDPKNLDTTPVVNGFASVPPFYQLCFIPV
structure (smiles),measurement,setting,value
"Clc1ccc2c(NC[C@@H]3CCCN4CCCC[C@H]34)ccnc2c1 [(−)-AM1, 7-chloro-N-(((1S,9aR)-octahydro-1H-quinolizin-1-yl)methyl)quinolin-4-amine]",inhibition at 3 µM,CYP1A2,< 5%
same,"Metabolic products detected, in vitro microsomes, rat",[1],+
same,IC50,[2],16.7 nM
same,dose proportionality of oral pharmacokinetics,[3],dose proportionality was displayed
same,inhibition at 3 µM,CYP2C9,< 5%
same,IC50,P. falciparum D10 (CQ-S),24 nM
same,"Metabolic products detected, in vivo plasma levels, mouse",[4],+
same,IC50,P. falciparum W-2 (CQ-R),53.7 nM
same,IC50,[5],23.3 nM
same,"infection intensity, average number of oocysts per midgut","[6]; BALB/c mice, read after 10 days, control 39.17, p = 0.24",54.11 (CI95 39.77–68.45) oocysts
same,transmission-blocking activity,[6]; P. berghei/A. stephensi model,does not show transmission-blocking or prophylactic activity
